How the values were obtained:
male golden hamsters = experiment: Resident/intruder paradigm of offensive aggression; format: in vivo, Syrian golden hamsters (Mesocricetus auratus)
Description: Male Syrian golden hamsters (Mesocricetus auratus) (140-150 g) obtained from Harlan Sprague-Dawley Laboratories (Indianapolis, Ind.) were housed individually in Plexiglas cages (24 cm×24 cm×20 cm), maintained on a reverse light:dark cycle (14L:10D; lights on at 19:00 hr) and provided food and water ad libitum. Animals were acclimated to the reverse light:dark cycle for at least two weeks before testing. All behavioral tests were conducted during the dark phase of the circadian cycle. All animals were acquired and cared for in accordance with the guidelines published in the Guide for the Care and Use of Laboratory Animals (National Institutes of Health Publications No. 85-23, Revised 1985).
(§1) Agonistic behavior can be classified as either offensive or defensive aggression (Blanchard and Blanchard, 1977; Adams, […]; Albert and Walsh, 1984). Offensive aggression is characterized by the aggressor initiating an attack on an opponent, while defensive aggression lacks active approach. Both types of aggression have their own unique neurobehavioral systems. The stimuli that elicit offensive and defense attack are different, as are the sequences of behaviors that accompany each agonistic response. […] Offensive aggression is easily studied using male golden hamsters tested in a resident/intruder paradigm, an established model of offensive aggression (Ferris and Potegal 1988). Placing an unfamiliar male hamster into the home cage of another male hamster elicits a well-defined sequence of agonistic behaviors from the resident that includes offensive aggression.
(§2) Hamsters are nocturnal and as such all behavioral tests were performed during the first four hrs of the dark phase under dim red illumination. The resident was scored for offensive aggression, e.g., latency to bite the intruder, the total number of bites, total contact time with the intruder and flank marking over a 10 min test period (Ferris and Potegal, 1988). Flank marking is a form of olfactory communication in which a hamsters arches its back and rubs pheromone producing flank glands against objects in the environment (Johnson, 1986).
Parametric data, i.e., latencies and contact time, were analyzed with a one-way ANOVA followed by Newman-Keuls post hoc tests. Non parametric data, i.e., number of bites and flank marks, were analyzed with Kruskal-Wallis tests followed by Mann-Whitney U tests to determine differences between groups. Two sample comparisons were analyzed with paired and unpaired t-Tests for parametric data and Wilcoxon and Mann-Whitney Tests for paired and unpaired non-parametric data, respectively.
as §1, with “by an” for “by the”, “an opponent; while,” for “an opponent, while”, “Potegal 1988) in the context of defending the home burrow.” for “Potegal 1988).”
as §2, with “Flank marking is a form of olfactory communication in which a hamsters arches its back and rubs pheromone producing flank glands against objects in the environment (Johnson, 1986).” left out

[1] = in vivo; cited from earlier work
golden hamsters = experiment: Seed finding model of anxiety; format: in vivo, Syrian golden hamsters (Mesocricetus auratus)
From the text: Clavulanic acid (CLAV) is structurally similar to the beta-lactam antibiotics. A most robust and simple bioassay for screening beta-lactams for CNS activity is the golden hamster seed finding model of anxiety. Briefly, hamsters are deprived of food overnight. The following day they are exposed to the additional stress of being taken from their home cage and placed in a novel environment for a few minutes. This manipulation stimulates the release of the stress hormone cortisol (FIG. 37). During their absence from the home cage, sunflower seeds are hidden under the bedding in one of the corners. When returned to the home cage, hamsters routinely scramble along the walls for 1-2 min before settling down, locating and eating the seeds. However, animals treated with the benzodiazepine anxiolytic chlordiazepoxide find seeds in less than 10 sec.
Male, Syrian golden hamsters (Mesocricetus auratus) (120-130 g) obtained from Harlan Sprague-Dawley Laboratories (Indianapolis, Ind.) were housed individually in Plexiglas cages (24 cm×24 cm×20 cm), maintained on a reverse light:dark cycle (14L:10D; lights on at 19:00 hr) and provided food and water ad libitum. A range of concentrations of CLAV (saline vehicle, 0.1, 1.0, 10, 100 1,000 ng/kg) were tested in six groups of hamsters (4-8/group)(FIG. 25). All tests were conducted during the dark phase of the circadian cycle under dim red illumination. Prior to testing all animals were fasted for 20-24 hrs. Ninety min after intraperitoneal (IP) injection of drug, animals were taken from their home cage and placed into a holding cage for 2 min. During their absence, six sunflower seeds were buried under the bedding in one corner of their home cage. Animals were placed back into their home cage randomly facing any one of the empty corners and timed for their latency to find the seeds in a five min observation period. Latency times were analyzed with a one-way ANOVA followed by Scheffe's post hoc tests. Assumption of equal variances was tested (Hartley's F-max=2.1 p>0.05)
It was hypothesized that CLAV functioned as an anxiolytic in the seed finding assay by blocking NAALADase activity in the brain. If this notion were true then it would be predicted that drugs known to block NAALADase should also enhance seed finding. To this end, animals were treated with N-acetyl-beta-aspartyl-glutamic acid (beta-NAAG), a competitive inhibitor of NAALADase (Serval et al., 1992) and tested in the seed finding model of anxiety. The study was similar to that outlined in Section I with one notable exception. […] Beta-NAAG (FW 304) was given in a dose of 3 ng in a volume of 1 μl saline ICV. The average adult hamster brain weights ca. 1.2 g of which 22% is extracellular fluid. The estimated beta-NAAG concentration was 11 ng/ml or 36 nM.
Two groups of six animals each were fasted overnight as previously described and tested the following day. One group was treated with beta-NAAG and the other saline vehicle and one hr later timed for latency to find the hidden sunflower seeds. A Student t-test for unpaired data was used for statistical comparisons.

[2] = Estimated fluid and brain concentrations after dosing hamsters; format: in vivo, hamster
Description: The adult male hamsters used in these studies weighed around 125 g. […] CLAV has a volume of distribution approximating the extracellular fluid volume. The extracellular water content of lean body mass is approximately 22%.
To this end, animals were treated with N-acetyl-beta-aspartyl-glutamic acid (beta-NAAG), a competitive inhibitor of NAALADase (Serval et al., 1992) and tested in the seed finding model of anxiety. The study was similar to that outlined in Section I with one notable exception. […] Beta-NAAG (FW 304) was given in a dose of 3 ng in a volume of 1 μl saline ICV. The average adult hamster brain weights ca. 1.2 g of which 22% is extracellular fluid.

hamsters = experiment: Olfactory discrimination: latency to find hidden sunflower seeds; format: in vivo, Syrian golden hamsters (Mesocricetus auratus); details: 1 mg/kg intracerebroventricular, sixty min, five min observation
Description: Sixteen animals were treated with vehicle or 50 μg/kg Mox and tested for olfactory discrimination by measuring their latency to find hidden sunflower seeds (FIG. 5). The injections were counterbalanced with each animal receiving each treatment. Prior to testing animals were fasted for 24 hrs. Ninety minutes after injection animals were briefly taken from their home cage while six sunflower seeds were buried under the bedding in one corner. Animals were placed back into their home cage and scored for the latency to find the seeds in a ten min observation period. […] In fact, not one of the sixteen animals consumed all of the seeds following saline as compared to all animals treated with Mox.
Six animals received an intracerebroventricular injection of vehicle or 1 mg/kg PPP and tested for olfactory discrimination by measuring their latency to find hidden sunflower seeds (FIG. 16). The injections were counterbalanced with each animal receiving each treatment. Prior to testing animals were fasted for 24 hrs. Sixty min. After injection animals were briefly taken from their home cage while six sunflower seeds were buried under the bedding in one corner. Animals were placed back into their home cage and scored for the latency to find the seeds in a five min. Observation period.

[3] = high dose ca. 5 mg/kg, 9 mM, IP
[4] = high dose ca. 5 mg/kg, 9 mM, IP, 90 min

Row | Compound | contact time (male golden hamsters; equimolar (90 μM) IP, 90 min) | flank marking (male golden hamsters; equimolar (90 μM) IP, 90 min) | contact time (male golden hamsters; [3]) | flank marking (male golden hamsters; [3]) | latency to bite (male golden hamsters; [4]) | number of bites (male golden hamsters; [4]) | blood-brain barrier transport / CNS penetrability [1] | other results
1 | CC1(C)S[C@@H]2[C@H](NC(=O)[C@H](N)c3ccc(O)cc3)C(=O)N2[C@H]1C(=O)O [Amox, Amoxicillin] | no significant treatment effect | no significant treatment effect | – | – | – | – | – | aggressive behavior (male golden hamsters; 1 mg/kg (ca. 2 mM) IP, 90 min): not significantly altered
2 | CC1(C)S[C@@H]2[C@H](NC(=O)[C@H](N)c3ccccc3)C(=O)N2[C@H]1C(=O)O [Amp, Ampicillin] | no significant treatment effect | no significant treatment effect | no significant treatment effect | no significant treatment effect | significantly delayed | significantly reduced | – | number of bites (male golden hamsters; equimolar (90 μM) IP, 90 min): significantly reduced; latency to bite (male golden hamsters; equimolar (90 μM, equal to 50 μg/kg Mox) IP, 90 min): significantly delayed
3 | CC1(C)S[C@@H]2[C@H](NC(=O)C(C(=O)O)c3ccccc3)C(=O)N2[C@H]1C(=O)O (stereo partly drawn) [Carb, Carbenicillin] | no significant treatment effect | no significant treatment effect | no significant treatment effect | no significant treatment effect | significantly delayed | significantly reduced | – | –
4 | CO[C@@]1(NC(=O)Cc2cccs2)C(=O)N2C(C(=O)O)=C(COC(N)=O)CS[C@@H]21 [Cef, Cefoxitin] | no significant treatment effect | no significant treatment effect | no significant treatment effect | no significant treatment effect | – | – | poor CNS penetrability | –
5 | CC(=O)N[C@@H](CC(=O)N[C@@H](CCC(=O)O)C(=O)O)C(=O)O [beta-NAAG, N-acetyl-beta-aspartyl-glutamic acid] | – | – | – | – | – | – | does not readily cross the blood-brain barrier | measures of offensive aggression (latency to bite, bites, contact time, flank marking) (male golden hamsters; 3 ng ICV, after the seed finding assay): no significant differences; latency to find the seeds vs saline vehicle (golden hamsters; 3 ng ICV, one hr, five min observation): significantly (p<0.001) different; mean latency to find the seeds (golden hamsters; 3 ng/μl microinjected, former vehicle animals three days later): 21.8 ± 9.7 s; estimated concentration in brain extracellular fluid (molar) ([2]; beta-NAAG 3 ng ICV, FW 304): 36 nM; estimated concentration in brain extracellular fluid ([2]; beta-NAAG 3 ng in 1 μl ICV, brain ca. 1.2 g, 22% extracellular fluid): 11 ng/mL
6 | Ala-D-γ-Glu-Lys-D-Ala-D-Ala [PPP] | – | – | – | – | – | – | – | contact time (male golden hamsters; ca. 1 mg/kg ICV): no significant difference; flank marking (male golden hamsters; ca. 1 mg/kg ICV): no significant difference; number of bites (male golden hamsters; ca. 1 mg/kg ICV, sixty minutes): reduced; latency to bite (male golden hamsters; ca. 1 mg/kg in 1 μl into lateral ventricle, sixty minutes): significantly increased; latency to find the seed (hamsters): significantly (p<0.05) reduced
